In publication PMC12147205, “Soybean Lectin Cross-Links Membranes by Binding Sulfatide in a Curvature-Dependent Manner” (Journal of Agricultural and Food Chemistry, 2025):
Several values for one entry are separate records, joined by “and”; a condition that tells them apart may be missing. Equal values may be shown once. Entries after “also recorded” stand apart in the source; their conditions may differ.

How the values were obtained:
[1] = target: T1, soybean lectin (Glycine max, UniProt P05046); test: Isothermal titration calorimetry of GalNAc and analogs binding to soybean lectin; details: for KD / Kd: 50 mM HEPES, 20 mM CaCl2 pH 7, one set of sites model, N fixed to 4, NB = no binding detected (KD over 1–2 mM)
T1 construct: from tissue; host or cells: soybean meal (Glycine max seed meal)
T1 sequence (P05046 33-285): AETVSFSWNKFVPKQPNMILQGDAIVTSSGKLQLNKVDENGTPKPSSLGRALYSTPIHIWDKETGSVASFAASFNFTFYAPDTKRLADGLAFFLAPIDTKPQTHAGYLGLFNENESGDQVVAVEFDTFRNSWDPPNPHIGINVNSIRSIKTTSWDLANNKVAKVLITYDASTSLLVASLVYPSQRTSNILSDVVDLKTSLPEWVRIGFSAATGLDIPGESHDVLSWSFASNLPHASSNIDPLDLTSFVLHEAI
Protocol: Isothermal titration calorimetry (ITC) measurements were performed in a buffer containing 50 mM HEPES and 20 mM CaCl2 (pH 7). […] Each experiment was carried out in duplicate.

[2] = target: T1, soybean lectin; test: Lectin-mediated cross-linking of sulfatide-containing GUVs, confocal microscopy; details: 7.5 μM lectin; GalNAc at 200 times the lectin concentration
Protocol: Giant unilamellar vesicles (GUVs) were generated as described by Horger et al. Briefly, an agarose solution was prepared by dissolving 4 g of agarose in 100 mL of Milli-Q water. The solution was poured onto one side of a glass slide and allowed to dry. The glass slide was then placed on a hot plate set to 38 °C. A 30 μL stock solution of lipids (3.75 mg/mL) was prepared in a chloroform–methanol mixture, containing 10% sulfatides, 30% DOPC, 30% cholesterol, 28% DOPE, and 2% DOPE-F (GUV-containing sulfatide) or 33.3% DOPC, 33.3% cholesterol, 31.3% DOPE, and 2% DOPE-F (GUV-sulfatide free). This lipid mixture was spread over the agarose layer on the heated glass slide using another glass slide. The slide remained on the hot plate for a few minutes until the solvent evaporated. To remove residual solvent, the glass slide containing the agarose and lipid film was placed in a vacuum chamber for 20 min. GUVs were then generated by placing the prepared glass slide in a Petri dish and covering it with phosphate buffer saline. The GUV-lectin suspension was prepared with a final lectin concentration of 7.5 μM. […] Confocal microscopy was performed using a Nikon AXR point-scanning confocal system built around an inverted Ti2 Eclipse microscope. […] In some cases, a gamma adjustment of 0.9 was applied to enhance fluorescence localization differences within individual vesicles. […]

[3] = target: T1, soybean lectin; test: SPR of lectin binding to sulfatide liposomes immobilized on L1 sensor chip; details: 0.4 μm liposomes, 10% sulfatide/90% DOPC; two-state reaction model; absence of GalNAc; read-out: KD (apparent), lectin to sulfatide liposomes
Protocol: SPR data were collected using a BIAcore X100 instrument equipped with an L1 sensor chip (Cytiva) coated with 0.4 μm liposomes at room temperature. Liposomes contained 10% sulfatide and 90% DOPC, whereas liposomes without sulfatide were composed of 100% DOPC. All experiments were performed using a buffer consisting of 50 mM HEPES and 140 mM NaCl (pH 7.4). Pretreatment of the sensor chip was performed with 40 mM octyl β-D-glucopyranoside. Liposomes were immobilized onto the L1 sensor chip at a flow rate of 30 μL/min, achieving a typical loading of ∼5500 response units per sensor chip channel. Lectin was used as the analyte across the specified concentration range. […] Data were best fitted using a two-state reaction model, and the apparent K D values were estimated using BIAevaluation software, version 2.0 (Cytiva).

[4] = target: porcine trypsin (Sus scrofa, UniProt P00761); test: Binding of soybean meal trypsin inhibitors to porcine trypsin (Table S2)
Chain of porcine trypsin (P00761 9-231): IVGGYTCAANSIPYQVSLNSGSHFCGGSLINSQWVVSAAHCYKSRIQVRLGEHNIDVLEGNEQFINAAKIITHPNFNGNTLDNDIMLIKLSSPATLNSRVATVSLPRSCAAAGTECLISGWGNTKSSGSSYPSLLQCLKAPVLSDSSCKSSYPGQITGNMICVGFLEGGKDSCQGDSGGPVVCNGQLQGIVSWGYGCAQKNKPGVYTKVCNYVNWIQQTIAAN

[5] = ITC competition, lectin preincubated with sulfatide liposomes (10% sulfatide/90% DOPC)
[6] = ITC competition, lectin preincubated with sulfatide-free liposomes (100% DOPC)
[7] = TI from soybean meal line 17Ti-0204
[8] = TI from soybean meal line 17Ti-0242
[9] = TI from soybean meal line 17Ti-0332
[10] = TI from soybean meal line 17Ti-0534
[11] = TI from soybean meal line Glenn

With CC(=O)N[C@H]1[C@H]([C@H](O)[C@H](O)CO)O[C@@](OC[C@H]2O[C@@H](O[C@H]3[C@H](O)[C@@H](O)[C@H](O)O[C@@H]3CO)[C@H](O)[C@@H](O)[C@H]2O)(C(=O)O)C[C@@H]1O [6-SL, 6′-Sialyl lactose] the KD ([1]; ITC, 25 °C) was “no detectable binding” and the Kd ([1]; ITC, 25 °C, read-out: KD) was over 1000 µM.

In the case of O=[N+]([O-])c1ccc(O[C@H]2O[C@H](CO)[C@@H](O)[C@H](O)[C@@H]2O)c(Cl)c1 [CNMP, 2-chloro-4-nitrophenyl-α-D-mannopyranoside], the KD ([1]; ITC, 25 °C) is reported as “no detectable binding” and the Kd ([1]; ITC, 25 °C, read-out: KD) is reported as over 1000 µM.

In the case of CC(=O)N[C@@H]1[C@@H](O)[C@@H](O)[C@@H](CO)O[C@H]1O [GalNAc, N-acetyl-D-galactosamine], the “effect on soybean lectin-mediated cross-linking of sulfatide-containing GUVs” value [2] is reported as “inhibited; also recorded: reduced”, the ΔG [1, 5] is reported as “–5.6 ± 0 kcal/mol” and the ΔH [1, 5] is reported as “–9.9 ± 0.2 kcal/mol”. For the same molecule, the “–TΔS” value [1, 5] was 4.3 ± 0.2 kcal/mol, the ΔG [1, 6] was “–5.6 ± 0 kcal/mol” and the ΔH [1, 6] was “–9.9 ± 0.2 kcal/mol”. For the same molecule, the “–TΔS” value [1, 6] was 4.3 ± 0.2 kcal/mol, the ΔG ([1]; ITC, 25 °C, pH 7) was “–5.8 ± 0 kcal/mol” and the “–TΔS” value ([1]; ITC, 25 °C, pH 7) was 4.5 kcal/mol and 4.5 ± 0.1 kcal/mol.

With CO[C@H]1O[C@H](CO)[C@H](O)[C@H](O)[C@H]1NC(C)=O [MGalNAc, Methyl-N-acetyl-2-deoxy-α-D-galactosamine] the Kd ([1]; ITC, 25 °C, read-out: KD) was 73 µM and 73.1 µM, the ΔG ([1]; ITC, 25 °C, pH 7) was “–5.7 ± 0 kcal/mol” and the ΔH ([1]; ITC, 25 °C, pH 7) was “–10.7 ± 0.1 kcal/mol”. The “–TΔS” value ([1]; ITC, 25 °C, pH 7) was 5.0 ± 0.1 kcal/mol.

In the case of O=[N+]([O-])c1ccccc1OC1OC(CO)C(O)C(O)C1O [NPGP, 2-Nitrophenyl-β-D-galactopyranoside], the “weaker affinity relative to GalNAc” value ([1]; ITC) is reported as about 10 fold, the ΔG ([1]; ITC, 25 °C, pH 7) is reported as “–4.3 ± 0 kcal/mol” and the ΔH ([1]; ITC, 25 °C, pH 7) is reported as “–9.8 ± 0.4 kcal/mol”. For the same molecule, the “–TΔS” value ([1]; ITC, 25 °C, pH 7) was 5.5 ± 0.3 kcal/mol and the Kd ([1]; KD, ITC, 25 °C) was 789.5 ± 0.7 µM.

For O=[N+]([O-])c1ccc(O[C@H]2O[C@H](CO)[C@@H](O)[C@H](O)[C@@H]2O)cc1 [NPMP, 4-nitrophenyl-α-D-mannopyranoside], the KD ([1]; ITC, 25 °C) was “no detectable binding” and the Kd ([1]; ITC, 25 °C, read-out: KD) was over 1000 µM.

CCCCCCCCO[C@H]1O[C@H](CO)[C@@H](O)[C@H](O)[C@@H]1O [OMP, Octyl-α-D-mannopyranoside] was tested, and the KD ([1]; ITC, 25 °C) was “no detectable binding” and the Kd ([1]; ITC, 25 °C, read-out: KD) was over 1000 µM.

Work on sulfatide yielded a Kd [3] of 0.264 ± 0.062 µM.

B1: KTI: Kunitz trypsin inhibitor isolated from soybean meal (protein)
chain: DFVLDNEGNPLENGGTYYILSDITAFGGIRAAPTGNERCPLTVVQSRNELDKGIGTIISSPYRIRFIAEGHPLSLKFDSFAVIMLCVGIPTEWSVVEDLPEGPAVKIGENKDAMDGWFRLERVSDDEFNNYKLVFCPQQAEDDKCGDIGISIDHDDGTRRLVVSKNKPLVVQFQKLDKESL
modifications: Native protein purified from soybean meal
In the case of B1, the Kd [4, 7] is reported as 9 ± 2 µM, the Kd [4, 8] is reported as 2.4 ± 0.3 µM and the Kd [4, 9] is reported as 1.2 ± 0.1 µM. The Kd [4, 10] was 2.4 ± 0.1 µM and the Kd [4, 11] was 1.1 ± 0.4 µM.

B2: BBTI: Birk and Bowman trypsin inhibitor isolated from soybean meal (protein)
chain: DDESSKPCCDQCACTKSNPPQCRCSDMRLNSCHSACKSCICALSYPAQCFCVDITDFCYEPCKPSEDDKEN
modifications: Native protein purified from soybean meal, probably a mixture of Bowman-Birk isoforms
B2 gave a Kd [4, 7] of 0.1 µM, a Kd [4, 8] of 0.1 ± 0.1 µM and a Kd [4, 9] of 0.2 µM. It also gave a Kd [4, 10] of 0.1 µM and a Kd [4, 11] of 0.1 µM.
